Measured values from patent publication US20110300229A1, “TREATING OR PREVENTING ROTAVIRUS INFECTION” (FONTERRA CO-OPERATIVE GROUP LIMITED, priority 2007, published 2011).
“And” between values parts separate entries of the source, which are not always exact repeats. Equal entries are not always repeated. Marks after values point to notes of the source that are not given here.

Test system: human rotavirus strain Wa
Assay: Rotavirus infection assay in HT29 cells (crystal violet, % uninfected cells)
Assay type: cell-based
Conditions: for activity in preventing virus infection of the cells: over a range of concentrations
Method: The HT29 cell line was used to propagate the human rotavirus strain Wa (neuraminidase resistant) in the presence of 1 μg/ml trypsin in Dulbecco's minimal essential medium (DMEM) supplemented with 10% foetal calf serum and penicillin/streptomycin (100 μg/ml/100 units/ml). Rotavirus was harvested by freeze thawing twice, spun at 750 g to remove cell debris and stored at −80° C. The rotavirus was assayed and found to contain […] plaque forming units (pfu)/ml.
The infection assay used was based on a number of published assays (Scott et al 1979; Smith et al 1979; Guarino et al 1996; Superb et al 2001). Confluent HT29 cells grown in DMEM (seeded at 3×10^5/ml in 96 well plates) were washed twice in sterile PBS. Doubling dilutions of each of the products to be screened (initial concentration 5 mg/ml) were made in the plate in 50 μl volumes of DMEM. Virus was added (10^4 pfu/well) to all wells except the cells only control and plates were then incubated for two hours in 5% CO2 at 37° C. Other controls included virus plus cells, lipids only, pure GM3 and pure GD3. Following the two-hour incubation trypsin was added to all the wells containing virus at a concentration of 2 μg/ml—this step cleaves VP4 to polypeptides VP8 and VP5 and is needed for the virion to penetrate into the cells' interior. Plates were incubated at 37° C. in 5% CO2 for seven days and were checked daily for cytopathic effect in the virus only control wells. Media was removed and plates washed in sterile PBS, air-dried and fixed with methanol for one minute. Plates were air dried and then stained with 100 μl/well of 1% crystal violet (351884W, BDH, England) for five minutes. Plates were washed four times with sterile water to remove excess stain. 100 μl of acetic acid per well was added to solubilise the stain and absorbance was read at a wavelength of 595 nm in a Biorad ELISA plate reader. Each sample was assayed on a minimum of three separate occasions and the percentage of uninfected cells calculated.
Statistical analysis was performed using an unpaired Student t test (InStat for MacIntosh) to compare the effect of the lipid products derived from bovine milk with the virus only control at the lowest dilution of the product.

Substance	Percentage of HT29 cells uninfected by rotavirus (7.8125 μg/ml)	Percentage of HT29 cells uninfected by rotavirus (15.625 μg/ml)	Percentage of HT29 cells uninfected by rotavirus (31.25 μg/ml)	Percentage of HT29 cells uninfected by rotavirus (125 μg/ml)	activity in preventing virus infection of the cells	Percentage of HT29 cells uninfected by rotavirus (62.5 μg/ml)	Percentage of HT29 cells uninfected by rotavirus (250 μg/ml, mean +/− spread)
Monosialoganglioside GM3	34 +/− 1.5%	33 +/− 2.5%	43+/−10%	49 +/− 8*** %	showed activity over a range of concentrations	–	–
disialoganglioside GD3	–	31 +/− 1.5%	40+/−3% and 40 +/− 2.5*** %	–	showed activity over a range of concentrations	59 +/− 1.4*** %	57 +/− 1*** %
